# Assay results published in patent US20100317647A1 (priority 2009, published 2010).
# Target: human Cat S (Homo sapiens, UniProt P25774)
# Assay: Cathepsin enzyme inhibition assay (fluorogenic peptide substrate cleavage)
# Type: biochemical
# Settings: human Cat S 1 nM; substrate Z-Val-Val-Arg-AMC 20 μM; pH 6.5; fluorescence over 20 minutes
# Method in brief: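 IC50 values derived from fluorescence increase (ex 360 nm, em 465 nm) monitored for 20 minutes after substrate addition. Enzyme held at 1 nM with 20 μM Z-Val-Val-Arg-AMC, in pH 6.5 potassium phosphate buffer containing DTT, EDTA and Triton X-100.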
# Chain of human Cat S (P25774 115-331): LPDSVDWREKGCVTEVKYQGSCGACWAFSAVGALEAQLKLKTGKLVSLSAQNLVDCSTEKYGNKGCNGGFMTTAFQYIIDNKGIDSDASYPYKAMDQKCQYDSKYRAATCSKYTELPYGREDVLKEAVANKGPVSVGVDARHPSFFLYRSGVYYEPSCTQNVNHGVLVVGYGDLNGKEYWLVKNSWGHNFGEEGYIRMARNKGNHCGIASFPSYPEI
row,SMILES,IC50 [pM]
1,"N#CC1(NC(=O)[C@@H]2C[C@@H](S(=O)(=O)c3ccc(-c4ccnc(Cl)c4)cc3C(F)(F)F)C[C@H]2C(=O)N2CC(F)(F)C2)CC1 [Example 122, (1R,2R,4R)-4-[4-(2-Chloro-pyridin-4-yl)-2-trifluoromethyl-benzenesulfonyl]-2-(3,3-difluoro-azetidine-1-carbonyl)-cyclopentanecarboxylic acid (1-cyano-cyclopropyl)-amide]",200
2,"N#CC1(NC(=O)[C@@H]2C[C@@H](S(=O)(=O)c3ccc(F)cc3Cl)C[C@H]2COc2ccncc2)CC1 [Example 163, (1R,2R,4S)-4-(2-Chloro-4-fluoro-benzenesulfonyl)-2-(pyridin-4-yloxymethyl)-cyclopentanecarboxylic acid (1-cyano-cyclopropyl)-amide]",11100
3,"Cn1cc(-c2ccc(S(=O)(=O)[C@@H]3C[C@@H](C(=O)NC4(C#N)CC4)[C@H](C(=O)N4CC(F)(F)C4)C3)c(C(F)(F)F)c2)cn1 [Example 120, (1R,2R,4R)-2-(3,3-Difluoro-azetidine-1-carbonyl)-4-[4-(1-methyl-1H-pyrazol-4-yl)-2-trifluoromethyl-benzenesulfonyl]-cyclopentanecarboxylic acid (1-cyano-cyclopropyl)-amide]",200
4,"CCCO[C@@H]1C[C@H](S(=O)(=O)c2ccccc2C(F)(F)F)C[C@H]1C(=O)NC1(C#N)CC1 (racemic) [Example 54, (1R,2R,4R) and (1S,2S,4S)-2-Propoxy-4-(2-trifluoromethyl-benzenesulfonyl)-cyclopentanecarboxylic acid (1-cyano-cyclopropyl)-amide]",2100
5,"CO[C@@H]1C[C@H](S(=O)(=O)c2ccc(-c3cnn(CC(=O)N(C)C)c3)cc2C(F)(F)F)C[C@H]1C(=O)NC1(C#N)CC1 (racemic) [Example 218, (1R,2R,4R) and (1S,2S,4S)-4-[4-(1-Dimethylcarbamoylmethyl-1H-pyrazol-4-yl)-2-trifluoromethyl-benzenesulfonyl]-2-methoxy-cyclopentanecarboxylic acid (1-cyano-cyclopropyl)-amide]",920
6,"N#CC1(NC(=O)[C@@H]2C[C@@H](S(=O)(=O)c3cccc(Br)c3)C[C@H]2C(=O)N2CCC(F)(F)C2)CC1 [Example 188, (1R,2R,4R)-4-(3-Bromo-benzenesulfonyl)-2-(3,3-difluoro-pyrrolidine-1-carbonyl)-cyclopentanecarboxylic acid (1-cyano-cyclopropyl)-amide]",985
7,"N#CC1(NC(=O)[C@@H]2C[C@@H](S(=O)(=O)c3ccc(OCC(F)(F)F)cc3Cl)C[C@H]2C(=O)N2CCC(F)(F)C2)CC1 [Example 189, (1R,2R,4R)-4-[2-Chloro-4-(2,2,2-trifluoro-ethoxy)-benzenesulfonyl]-2-(3,3-difluoro-pyrrolidine-1-carbonyl)-cyclopentanecarboxylic acid (1-cyano-cyclopropyl)-amide]",675
8,"N#CC1(NC(=O)[C@H]2CC[C@H](S(=O)(=O)c3ccc(OCC(F)(F)F)cc3Cl)C2)CC1 (single isomer, unassigned) [Example 98]",160000
9,"Cc1cccc(S(=O)(=O)[C@@H]2C[C@@H](C(=O)NC3(C#N)CC3)[C@H](C(=O)N3CCC(F)(F)C3)C2)c1 [Example 205, (1R,2R,4R)-2-(3,3-Difluoro-pyrrolidine-1-carbonyl)-4-(toluene-3-sulfonyl)-cyclopentanecarboxylic acid (1-cyano-cyclopropyl)-amide]",325
10,"Cc1cccc(S(=O)(=O)[C@@H]2C[C@@H](C(=O)NCC#N)[C@H](C(=O)N3CCOCC3)C2)c1 [Example 5, (1R,2R,4R)-2-(Morpholine-4-carbonyl)-4-(toluene-3-sulfonyl)-cyclopentanecarboxylic acid cyanomethyl-amide]",600
11,"CC(C)(C)NC(=O)[C@@H]1C[C@H](S(=O)(=O)c2ccccc2)C[C@H]1C(=O)NC1(C#N)CC1 [Example 28, (1R,2R,4S)-4-Benzenesulfonyl-cyclopentane-1,2-dicarboxylic acid 1-tert-butylamide 2-[(1-cyano-cyclopropyl)-amide]]",25500
12,"CO[C@H]1C[C@@H](S(=O)(=O)c2ccc(-n3cc(CCO)nn3)cc2C(F)(F)F)C[C@@H]1C(=O)NC1(C#N)CC1 (racemic) [Example 253, (1S,2S,4S) and (1R,2R,4R)-4-{4-[4-(2-Hydroxy-ethyl)-[1,2,3]triazol-1-yl]-2-trifluoromethyl-benzenesulfonyl}-2-methoxy-cyclopentanecarboxylic acid (1-cyano-cyclopropyl)-amide]",675
13,"N#CC1(NC(=O)[C@H]2CC[C@H](S(=O)(=O)c3ccc(F)cc3Cl)C2)CC1 (racemic) [Example 92, (1S,3S) and (1R,3R)-3-(2-Chloro-4-fluoro-benzenesulfonyl)-cyclopentanecarboxylic acid (1-cyano-cyclopropyl)-amide]",385000
14,C[C@@H](Oc1ccc(S(=O)(=O)[C@H]2CC[C@H](C(=O)NC3(C#N)CC3)C2)c(Cl)c1)C(F)(F)F (racemic) [Example 93],565000
15,"CCOC(=O)N1CCC(C#N)(NC(=O)[C@@H]2C[C@@H](S(=O)(=O)c3ccc(-c4cnn(C)c4)cc3C(F)(F)F)C[C@H]2OC)CC1 (racemic) [Example 237, 4-Cyano-4-({(1R,2R,4R) and (1S,2S,4S)-2-methoxy-4-[4-(1-methyl-1H-pyrazol-4-yl)-2-trifluoromethyl-benzenesulfonyl]-cyclopentanecarbonyl}-amino)-piperidine-1-carboxylic acid ethyl ester]",2200
16,"N#CC1(NC(=O)[C@@H]2C[C@@H](S(=O)(=O)c3ccc(N4CCN(C5CC5)CC4)cc3Cl)C[C@H]2C(=O)N2CC(F)(F)C2)CC1 [Example 159, (1R,2R,4R)-4-[2-Chloro-4-(4-cyclopropyl-piperazin-1-yl)-benzenesulfonyl]-2-(3,3-difluoro-azetidine-1-carbonyl)-cyclopentanecarboxylic acid (1-cyano-cyclopropyl)-amide]",385
17,"N#CC1(NC(=O)[C@@H]2C[C@@H](S(=O)(=O)c3ccccc3)C[C@H]2C(=O)N2[C@@H]3CC[C@H]2COC3)CC1 [Example 18, (1R,2R,4R)-4-Benzenesulfonyl-2-((1R,5S)-3-oxa-8-aza-bicyclo[3.2.1]octane-8-carbonyl)-cyclopentanecarboxylic acid (1-cyano-cyclopropyl)-amide]",2000
18,"Cc1ccc(C(C)(C)O[C@@H]2C[C@H](S(=O)(=O)c3ccccc3Cl)C[C@H]2C(=O)NC2(C#N)CC2)cc1 (racemic) [Example 245, (1R,2R,4R) and (1S,2S,4S)-4-(2-chlorophenylsulfonyl)-N-(1-cyanocyclopropyl)-2-(2-p-tolylpropan-2-yloxy)cyclopentanecarboxamide]",11400
19,"CO[C@@H]1C[C@H](S(=O)(=O)c2ccc(-c3cncc(Cl)c3)cc2C(F)(F)F)C[C@H]1C(=O)NC1(C#N)CC1 (racemic) [Example 90, (1R,2R,4R) and (1S,2S,4S)-4-[4-(5-Chloro-pyridin-3-yl)-2-trifluoromethyl-benzenesulfonyl]-2-methoxy-cyclopentanecarboxylic acid (1-cyano-cyclopropyl)-amide]",400
20,"N#CC1(NC(=O)[C@H]2CC[C@H](S(=O)(=O)c3ccc(N4CCN(C5CC5)CC4)cc3Cl)C2)CC1 (racemic) [Example 102, (1S,3S) and (1R,3R)-3-[2-Chloro-4-(4-cyclopropyl-piperazin-1-yl)-benzenesulfonyl]-cyclopentanecarboxylic acid (1-cyano-cyclopropyl)-amide]",270000
21,"N#CC1(NC(=O)[C@@H]2C[C@@H](S(=O)(=O)c3ccccc3C(F)(F)F)C[C@H]2OC2CCS(=O)(=O)CC2)CC1 (racemic) [Example 219, (1R,2R,4R) and (1S,2S,4S)-2-[(tetrahydro-1,1-dioxo-2H-thiopyran-4-yl)oxy]-4-(2-trifluoromethyl-benzenesulfonyl)-cyclopentanecarboxylic acid (1-cyano-cyclopropyl)-amide]",6770
22,"CO[C@@H]1C[C@H](S(=O)(=O)c2ccc(-c3cnn(C)c3)cc2C(F)(F)F)C[C@H]1C(=O)NC1(C#N)CC1 (racemic) [Example 66, (1R,2R,4R) and (1S,2S,4S)-2-Methoxy-4-[4-(1-methyl-1H-pyrazol-4-yl)-2-trifluoromethyl-benzenesulfonyl]-cyclopentanecarboxylic acid (1-cyano-cyclopropyl)-amide]",700
23,"N#CC1(NC(=O)[C@@H]2C[C@@H](S(=O)(=O)c3ccccc3C(F)(F)F)C[C@H]2Oc2ccccc2)CC1 (racemic) [Example 231, (1R,2R,4R) and (1S,2S,4S)-2-Phenoxy-4-(2-trifluoromethyl-benzenesulfonyl)-cyclopentanecarboxylic acid (1-cyano-cyclopropyl)-amide]",1250
24,"N#CCNC(=O)[C@@H]1C[C@@H](S(=O)(=O)c2ccc(F)cc2F)C[C@H]1C(=O)N1CCOCC1 [Example 6, (1R,2R,4R)-4-(2,4-Difluoro-benzenesulfonyl)-2-(morpholine-4-carbonyl)-cyclopentanecarboxylic acid cyanomethyl-amide]",800
25,"Cn1cc(-c2ccc(S(=O)(=O)[C@H]3C[C@@H](OC4CCCC4)[C@H](C(=O)NC4(C#N)CC4)C3)c(C(F)(F)F)c2)cn1 (racemic) [Example 213, (1R,2R,4R) and (1S,2S,4S)-2-Cyclopentyloxy-4-[4-(1-methyl-1H-pyrazol-4-yl)-2-trifluoromethyl-benzenesulfonyl]-cyclopentanecarboxylic acid (1-cyano-cyclopropyl)-amide]",160
26,"Cc1cc(-c2ccc(S(=O)(=O)[C@@H]3C[C@@H](C(=O)NC4(C#N)CC4)[C@H](C(=O)N4CCC(F)(F)C4)C3)c(Cl)c2)ccn1 [Example 198, (1R,2R,4R)-4-[2-Chloro-4-(2-methyl-pyridin-4-yl)-benzenesulfonyl]-2-(3,3-difluoro-pyrrolidine-1-carbonyl)-cyclopentanecarboxylic acid (1-cyano-cyclopropyl)-amide]",135
